PubChem BioAssay AID1845195 (Molecular Pharmacology Branch, DTP, NCI, 2023)
“And” between values parts separate entries of the source, which are not always exact repeats. Equal values may be shown once.

Tested on: 156681-154-R-J1 tumor spheroid viability
Experiment: Anticancer human tumor 156681-154-R-J1 patient-derived melanoma cell line growth inhibition
Details: spheroids with HUVEC and MSC; for viability, T/C: stronger effect = lower value
Outline: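 Complex tumor spheroids combined malignant cells with endothelial cells and mesenchymal stem cells. DNA-damaging drugs and DNA repair inhibitors were tested alone and in combination, at half-log dilutions down from clinical Cmax (top 10 microM if Cmax unknown), 0.25% DMSO final.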
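Further: spheroids exposed to compounds for 7 days before readout.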
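Wherever viability, T/C is given: percent of vehicle control viability where 100% = DMSO-treated spheroids.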

Work on Cn1ncnc1[C@H]1c2n[nH]c(=O)c3cc(F)cc(c23)N[C@@H]1c1ccc(F)cc1 + Cn1nnc2c(C(N)=O)ncn2c1=O yielded an IC50 (curve of first compound, second compound 1 µM) of 971 nM, an IC50 (curve of first compound, second compound 3.16 µM) of 591 nM and an IC50 (curve of first compound, second compound 10 µM) of 270 nM. The IC50 (curve of first compound, second compound 31.6 µM) was under 9.49 nM, the IC50 (curve of first compound, second compound 100 µM) was under 9.49 nM and the viability, T/C (second compound 1 µM, first compound 0.00949 µM) was 78.4%. For the same molecule, the viability, T/C (second compound 1 µM, first compound 0.03 µM) was 83.7%, the viability, T/C (second compound 1 µM, first compound 0.0949 µM) was 75% and the viability, T/C (second compound 1 µM, first compound 0.3 µM) was 72.7%. It also gave a viability, T/C (second compound 1 µM, first compound 0.949 µM) of 50.5%, a viability, T/C (second compound 1 µM, first compound 3 µM) of 16.6% and a viability, T/C (second compound 3.16 µM, first compound 0.00949 µM) of 69%. For the same molecule, the viability, T/C (second compound 3.16 µM, first compound 0.03 µM) was 74.4%, the viability, T/C (second compound 3.16 µM, first compound 0.0949 µM) was 71% and the viability, T/C (second compound 3.16 µM, first compound 0.3 µM) was 64.1%. For the same molecule, the viability, T/C (second compound 3.16 µM, first compound 0.949 µM) was 40%, the viability, T/C (second compound 3.16 µM, first compound 3 µM) was 15.2% and the viability, T/C (second compound 10 µM, first compound 0.00949 µM) was 81.1%. For the same molecule, the viability, T/C (second compound 10 µM, first compound 0.03 µM) was 88.4%, the viability, T/C (second compound 10 µM, first compound 0.0949 µM) was 54.6% and the viability, T/C (second compound 10 µM, first compound 0.3 µM) was 50%. For the same molecule, the viability, T/C (second compound 10 µM, first compound 0.949 µM) was 33.7%, the viability, T/C (second compound 10 µM, first compound 3 µM) was 13.6% and the viability, T/C (second compound 31.6 µM, first compound 0.00949 µM) was 44.4%. The viability, T/C (second compound 31.6 µM, first compound 0.03 µM) was 35.4%, the viability, T/C (second compound 31.6 µM, first compound 0.0949 µM) was 34.9% and the viability, T/C (second compound 31.6 µM, first compound 0.3 µM) was 29.6%. It also gave a viability, T/C (second compound 31.6 µM, first compound 0.949 µM) of 17%, a viability, T/C (second compound 31.6 µM, first compound 3 µM) of 18% and a viability, T/C (second compound 100 µM, first compound 0.00949 µM) of 16.3%. For the same molecule, the viability, T/C (second compound 100 µM, first compound 0.03 µM) was 14.4%, the viability, T/C (second compound 100 µM, first compound 0.0949 µM) was 12.2% and the viability, T/C (second compound 100 µM, first compound 0.3 µM) was 11.3%. It also gave a viability, T/C (second compound 100 µM, first compound 0.949 µM) of 14% and a viability, T/C (second compound 100 µM, first compound 3 µM) of 14.4%.
With COc1ccc([C@@H](O)c2cc(-c3ncnc4cc(N5CCOCC5)ccc34)c(F)cc2Cl)nn1 the viability, T/C (compound 0.0316 µM) was 95.2% and 80.1% and 80.3%, the viability, T/C (compound 0.1 µM) was 99.7% and 89.8% and 88% and the viability, T/C (compound 0.316 µM) was 88% and 84.6% and 86.1%. The viability, T/C (compound 1 µM) was 71.3% and 63.9% and 76.9%, the viability, T/C (compound 3.16 µM) was 59.8% and 60.9% and 55.3% and the viability, T/C (compound 10 µM) was 46.2% and 62.8% and 43.4%. The IC50 (curve of compound) was 7330 nM and > 10000 nM and 5220 nM.
For Cc1cc(C)c(CNC(=O)c2cc(-c3ccc(CN4CCOCC4)cc3)cc3c2cnn3C2CCCC2)c(=O)[nH]1 + COc1cc2c(cc1O)CCNC21CSC2c3c(OC(C)=O)c(C)c4c(c3C(COC1=O)N1C(O)C3Cc5cc(C)c(OC)c(O)c5C(C21)N3C)OCO4, the IC50 (curve of first compound, second compound 30 pM) was over 10000 nM, the IC50 (curve of first compound, second compound 94.9 pM) was over 10000 nM and the IC50 (curve of first compound, second compound 0.0003 µM) was over 10000 nM. The IC50 (curve of first compound, second compound 0.000949 µM) was under 31.6 nM, the IC50 (curve of first compound, second compound 0.003 µM) was under 31.6 nM and the viability, T/C (second compound 30 pM, first compound 0.0316 µM) was 103%. It also gave a viability, T/C (second compound 30 pM, first compound 0.1 µM) of 106%, a viability, T/C (second compound 30 pM, first compound 0.316 µM) of 87.3% and a viability, T/C (second compound 30 pM, first compound 1 µM) of 78.7%. The viability, T/C (second compound 30 pM, first compound 3.16 µM) was 81.5%, the viability, T/C (second compound 30 pM, first compound 10 µM) was 87.8% and the viability, T/C (second compound 94.9 pM, first compound 0.0316 µM) was 100%. The viability, T/C (second compound 94.9 pM, first compound 0.1 µM) was 93.8%, the viability, T/C (second compound 94.9 pM, first compound 0.316 µM) was 89% and the viability, T/C (second compound 94.9 pM, first compound 1 µM) was 77.6%. For the same molecule, the viability, T/C (second compound 94.9 pM, first compound 3.16 µM) was 86.4%, the viability, T/C (second compound 94.9 pM, first compound 10 µM) was 78.8% and the viability, T/C (second compound 0.0003 µM, first compound 0.0316 µM) was 76.2%. The viability, T/C (second compound 0.0003 µM, first compound 0.1 µM) was 74.5%, the viability, T/C (second compound 0.0003 µM, first compound 0.316 µM) was 76.2% and the viability, T/C (second compound 0.0003 µM, first compound 1 µM) was 79.6%. For the same molecule, the viability, T/C (second compound 0.0003 µM, first compound 3.16 µM) was 72.7%, the viability, T/C (second compound 0.0003 µM, first compound 10 µM) was 66.4% and the viability, T/C (second compound 0.000949 µM, first compound 0.0316 µM) was 4.8%. For the same molecule, the viability, T/C (second compound 0.000949 µM, first compound 0.1 µM) was 6.16%, the viability, T/C (second compound 0.000949 µM, first compound 0.316 µM) was 5.29% and the viability, T/C (second compound 0.000949 µM, first compound 1 µM) was 6.16%. For the same molecule, the viability, T/C (second compound 0.000949 µM, first compound 3.16 µM) was 3.09%, the viability, T/C (second compound 0.000949 µM, first compound 10 µM) was 1.36% and the viability, T/C (second compound 0.003 µM, first compound 0.0316 µM) was 0.35%. It also gave a viability, T/C (second compound 0.003 µM, first compound 0.1 µM) of 0.31%, a viability, T/C (second compound 0.003 µM, first compound 0.316 µM) of 0.24% and a viability, T/C (second compound 0.003 µM, first compound 1 µM) of 0.18%. It also gave a viability, T/C (second compound 0.003 µM, first compound 3.16 µM) of 0.16% and a viability, T/C (second compound 0.003 µM, first compound 10 µM) of 0.28%.
